Columns and labels:
Type in all cases: in vivo
[1] = tested on: Yellow Fever Mosquito (Aedes aegypti, AEDSAE) ("YFM"); assay: Bioassays on YFM, 96-well plate larval assay; settings: about 1 day-old larvae, from 4000 ppm DMSO master plate diluted, room temperature, scored after 3 days
Procedure, shortened: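 Compounds from 4000 ppm DMSO master plates, diluted in 90:10 water:acetone, dispensed into 96-well plates, six replicates. About 1-day-old larvae added in liver-powder water. Wells covered, held 3 days at room temperature, then scored for mortality.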

[2] = tested on: Corn Earworm (Helicoverpa zea, HELIZE) ("CEW"); assay: Bioassays on CEW, 128-well diet tray assay; settings: 168 h, second instar larvae, 50 μg/cm^2 on artificial diet, 25° C., five to seven days, average of eight wells, read-out: CEW % Control (or Mortality) rating
Description: Certain molecules disclosed in this document were tested against BAW, CEW, and CL using procedures described in the following examples. In the reporting of the results, the “BAW, CEW, & CL Rating Table” was used (See Table Section).
Bioassays on CEW were conducted using a 128-well diet tray assay. one to five second instar CEW larvae were placed in each well (3 mL) of the diet tray that had been previously filled with 1 mL of artificial diet to which 50 μg/cm^2 of the test compound (dissolved in 50 μL of 90:10 acetone-water mixture) had been applied (to each of eight wells) and then allowed to dry. Trays were covered with a clear self-adhesive cover, and held at 25° C., 14:10 light-dark for five to seven days. Percent mortality was recorded for the larvae in each well; activity in the eight wells was then averaged. The results are indicated in the table entitled “Table ABC: Biological Results” (See Table Section). Bioassays on CL

[3] = tested on: Green Peach Aphid (Myzus persicae, MYZUPE) ("GPA"); assay: Bioassays on GPA, foliar spray of infested cabbage seedlings; settings: 72 h, 200 ppm spray on cabbage seedlings, graded after three days, Abbott corrected % control, read-out: GPA % Control (or Mortality) rating
Procedure, shortened: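 Cabbage seedlings (2-3 true leaves) infested with 20-50 wingless adult and nymph aphids one day before spraying to runoff at 200 ppm in aqueous 0.025% Tween 20 with 20% acetone/methanol. Live aphids counted after three days at ~25 °C; % control by Abbott's correction versus solvent-check plants.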

[4] = tested on: Beet Armyworm (Spodoptera exigua, LAPHEG) ("BAW"); assay: Bioassays on BAW, 128-well diet tray assay; settings: 168 h, second instar larvae, 50 μg/cm^2 on artificial diet, 25° C., five to seven days, average of eight wells, read-out: BAW % Control (or Mortality) rating
Procedure, shortened: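 One to five second-instar larvae were placed per well on artificial diet surface-treated with 50 μg/cm^2 compound from 90:10 acetone-water, dried before infestation. Trays were held at 25 °C, 14:10 light-dark, for five to seven days. Percent mortality was averaged over eight wells.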

[5] = tested on: Cabbage Looper (Trichoplusia ni, TRIPNI) ("CL"); assay: Bioassays on CL, 128-well diet tray assay; settings: 168 h, second instar larvae, 50 μg/cm^2 on artificial diet, 25° C., five to seven days, average of eight wells, read-out: CL % Control (or Mortality) rating
Procedure, shortened: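 Second-instar larvae (one to five per well) on artificial diet surface-treated with 50 μg/cm^2 compound in 90:10 acetone-water, eight wells per treatment. Held at 25° C., 14:10 light-dark for five to seven days. Percent mortality scored per well and averaged over the eight wells.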

SMILES	YFM % Control (or Mortality) rating [1]	mortality at 50 µg/cm2 [2] [%]	mortality at 200 ppm [3] [%]	mortality at 50 µg/cm2 [4] [%]	mortality at 50 µg/cm2 [5] [%]
CN(C)c1ccc(NC(=S)NCc2ccc(-c3ncn(-c4ccc(OC(F)(F)C(F)(F)F)cc4)n3)cc2)cc1 [F112, 1-(4-(Dimethylamino)phenyl)-3-(4-(1-(4-(perfluoroethoxy)phenyl)-1H-1,2,4-triazol-3-yl)benzyl)thiourea]	D (No activity noticed in this bioassay)	0	0	0 to 50	
COc1ccc(NC(=S)NCc2ccc(-c3ncn(-c4ccc(OC(F)(F)C(F)(F)F)cc4)n3)cc2)cc1 [F110, 1-(4-methoxyphenyl)-3-(4-(1-(4-(perfluoroethoxy)phenyl)-1H-1,2,4-triazol-3-yl)benzyl)thiourea]	D (No activity noticed in this bioassay)	0	0	50 to 100	
COc1ccc(NC(=S)NCc2ccc(-c3ncn(-c4ccc(OC(F)(F)C(F)(F)F)cc4)n3)cc2)c(C)c1 [F111, 1-(4-methoxy-2-methylphenyl)-3-(4-(1-(4-(perfluoroethoxy)phenyl)-1H-1,2,4-triazol-3-yl)benzyl)thiourea]	A (80-100)	50 to 100	0	50 to 100	
CC(=O)N(C(=S)Nc1cccc(C)c1)c1ccc(-c2ncn(-c3ccc(OC(F)(F)F)cc3)n2)cc1 [F67, N-(m-tolylcarbamothioyl)-N-(4-(1-(4-(trifluoromethoxy)phenyl)-1H-1,2,4-triazol-3-yl)phenyl)acetamide]	D (No activity noticed in this bioassay)	0	0	0 to 50	
Cc1ccc(C)n1-c1ccccc1NC(=S)Nc1ccc(-c2ncn(-c3ccc(OC(F)(F)F)cc3)n2)cc1 [F75, 1-(2-(2,5-Dimethyl-1H-pyrrol-1-yl)phenyl)-3-(4-(1-(4-(trifluoromethoxy)phenyl)-1H-1,2,4-triazol-3-yl)phenyl)thiourea]	D (No activity noticed in this bioassay)	50 to 100	0	50 to 100	50 to 100

Reference: US9445594B2, “Molecules having certain pesticidal utilities, intermediates, compositions, and processes, related thereto” (priority 2014, dated 2016)
